Each block holds one molecule with its values, some of them ahead of it.
Tests used:
[1] = biological target: T1, Beta-adrenergic receptor kinase 1 (Bos taurus, UniProt P21146); assay: Inhibition of bovine GRK2 expressed in baculovirus infected insect cell using tubulin as substrate incubated for 5 mins in presence of [gamma-32P]-ATP by radiometric assay
T1 sequence (P21146 whole entry): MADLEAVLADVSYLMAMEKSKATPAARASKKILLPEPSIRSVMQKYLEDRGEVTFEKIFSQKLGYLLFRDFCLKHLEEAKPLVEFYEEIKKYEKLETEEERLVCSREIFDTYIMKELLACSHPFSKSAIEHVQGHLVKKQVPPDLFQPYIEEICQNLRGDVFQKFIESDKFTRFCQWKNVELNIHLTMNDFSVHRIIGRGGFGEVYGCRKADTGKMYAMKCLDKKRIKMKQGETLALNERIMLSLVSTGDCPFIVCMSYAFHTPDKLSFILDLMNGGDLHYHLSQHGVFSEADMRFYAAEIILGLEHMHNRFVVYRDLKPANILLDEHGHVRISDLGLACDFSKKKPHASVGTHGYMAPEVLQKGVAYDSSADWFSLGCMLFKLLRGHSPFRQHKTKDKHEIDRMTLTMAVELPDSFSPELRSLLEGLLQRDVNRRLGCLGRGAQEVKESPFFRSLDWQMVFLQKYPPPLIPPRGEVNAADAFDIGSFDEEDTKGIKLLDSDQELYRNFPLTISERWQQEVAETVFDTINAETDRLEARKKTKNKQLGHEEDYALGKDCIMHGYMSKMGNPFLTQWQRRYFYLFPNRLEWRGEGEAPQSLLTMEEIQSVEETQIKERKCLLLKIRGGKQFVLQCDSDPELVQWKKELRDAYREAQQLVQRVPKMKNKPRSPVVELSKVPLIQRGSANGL

[2] = Selectivity index, ratio of IC50 for inhibition of bovine GRK2 to IC50 for inhibition of human GRK5
[3] = biological target: G protein-coupled receptor kinase 5 (Homo sapiens, UniProt P34947); assay: Inhibition of human GRK5 (1 to 590) expressed in Escherichia coli using tubulin as substrate incubated for 5 mins in presence of [gamma-32P]-ATP by radiometric assay
Sequence of G protein-coupled receptor kinase 5 (P34947 whole entry): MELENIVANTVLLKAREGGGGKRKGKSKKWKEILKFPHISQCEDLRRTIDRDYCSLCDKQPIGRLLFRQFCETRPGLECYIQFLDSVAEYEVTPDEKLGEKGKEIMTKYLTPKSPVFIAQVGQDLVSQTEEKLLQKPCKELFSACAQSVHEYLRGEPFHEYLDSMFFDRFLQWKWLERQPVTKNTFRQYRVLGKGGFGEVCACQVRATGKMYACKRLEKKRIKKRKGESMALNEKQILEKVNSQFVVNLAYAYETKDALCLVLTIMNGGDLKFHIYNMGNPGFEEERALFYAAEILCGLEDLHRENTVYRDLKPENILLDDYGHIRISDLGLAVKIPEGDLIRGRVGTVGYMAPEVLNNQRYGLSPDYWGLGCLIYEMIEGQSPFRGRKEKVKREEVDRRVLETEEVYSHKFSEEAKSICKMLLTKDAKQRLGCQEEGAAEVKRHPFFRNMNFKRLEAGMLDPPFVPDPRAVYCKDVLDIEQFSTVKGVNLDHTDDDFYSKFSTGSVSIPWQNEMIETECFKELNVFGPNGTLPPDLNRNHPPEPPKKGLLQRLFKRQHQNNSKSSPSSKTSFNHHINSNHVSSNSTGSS

- IC50 [1]: > 1000 µM
- Ratio IC50 [2]: 900
- IC50 [3]: 1.1 µM
Compound: Cc1[nH]c(/C=C2\C(=O)Nc3ccc(C(=O)N[C@H](C)c4ccc(F)cc4)cc32)c(C)c1NC(=O)C(=O)c1ccccc1

- IC50 [1]: 600 µM
Compound: Cc1[nH]c(/C=C2\C(=O)Nc3ccc(C(=O)N[C@H](C)c4ccc(F)cc4)cc32)c(C)c1NC(=O)[C@@H](C)O

- IC50 [1]: 30 µM
Compound: Cc1[nH]c(/C=C2\C(=O)Nc3ccc(C(=O)NCc4ccc(F)cc4)cc32)c(C)c1NC(=O)[C@H](O)c1ccccc1

The next lines start with the molecule.

Compound: Cc1[nH]c(/C=C2\C(=O)Nc3ccc(C(=O)NCc4ccc(F)cc4)cc32)c(C)c1NC(=O)[C@@H](O)c1ccco1
- IC50 [1]: 2.2 µM

Compound: Cc1[nH]c(/C=C2\C(=O)Nc3ccc(C(=O)N[C@H](C)c4ccc(F)cc4)cc32)c(C)c1NC(=O)[C@H](C)O
- IC50 [1]: 100 µM

Compound: Cc1[nH]c(/C=C2\C(=O)Nc3ccc(C(=O)N[C@H](C)c4ccc(F)cc4)cc32)c(C)c1NC(=O)[C@@H](O)c1ccccc1
- IC50 [1]: 90 µM

Compound: CC(=O)C(=O)Nc1c(C)[nH]c(/C=C2\C(=O)Nc3ccc(C(=O)N[C@H](C)c4ccc(F)cc4)cc32)c1C
- IC50 [1]: 200 µM

Compound: Cc1[nH]c(/C=C2\C(=O)Nc3ccc(C(=O)N[C@H](C)c4ccc(F)cc4)cc32)c(C)c1NC(=O)C(=O)c1ccco1
- IC50 [1]: > 1000 µM
